Data set [1] concerns human platelet suspension. The experiment in a line: ADP-induced platelet aggregation in human platelet suspension. It counts as cell-based. The note with it: human platelet suspension; preliminary; compound concentration not given. As for the experimental part:
(§1) Human platelet suspension (PS) was prepared according to the method described previously. Briefly, blood sample, freshly obtained from healthy volunteers who had taken no medications during the preceding 2 weeks, was treated with acid citrate/dextrose (ACD) in a volume ratio of 9:1. After centrifugation at 120 g, 25° C. for 9 min, platelet-rich plasma was transferred into another plastic tube and incubated with heparin (6.4 U/ml) as well as prostaglandin E1 (1 μM). Platelets were spun down by centrifugation at 500 g, 25° C. for 8 min and subsequently washed two times with Tyrode solution (NaH2PO4 0.4 mM; NaCl 136.9 mM; KCl […]; NaHCO3 11.9 mM; CaCl2 2 mM; MgCl2 2.1 mM; glucose 11.1 mM; BSA 3.5 mg/ml; pH 7.35-7.4). The washed platelets were finally suspended in Tyrode's solution and the platelet count was adjusted to 3.75×10^8 platelets/ml. For platelet-rich plasma (PRP) preparation, whole blood was anticoagulated with 1/10 vol of sodium citrate (3.8%, w/v) and centrifuged at 150 g, 25° C. for 9 min.
(§2) Platelet aggregation was measured turbidimetrically with a Lumi-aggregometer (Payton Scientific) at 37° C. under stirring condition (900 rpm). Platelet suspensions were prewarmed to 37° C. for 2 min in a silicone-treated glass cuvette. Nstpbp5185 was added 3 min before the addition of platelet-aggregation inducers. The extent of platelet aggregation was determined by recording the increase of light transmission relative to that of control (maximal aggregation, as 100%) for 6 min after the addition of inducer. The final volume and platelet count for measuring platelet aggregation were 500 μl and 3×10^8/ml, respectively.

The subject of data set [2] is human platelet suspension. Kind of data set: Collagen-induced platelet aggregation in human platelet suspension. It is filed as cell-based. Particulars: collagen 10 μg/ml; for % inhibition collagen: human platelet suspension, preliminary, compound concentration not given. As for the experimental part: as §1, §2
The subject of data set [3] is human platelet suspension. The experiment in a line: U46619-induced platelet aggregation in human platelet suspension. It counts as cell-based. The note with it: for IC50: Homo sapiens, Platelet, U46619-induced aggregation, platelet suspension, read-out: P.S(U46619) IC50. As for the experimental part:
as §1, §2

In another data set the target is T1, Thromboxane synthase (Homo sapiens, UniProt P24557).
T1 construct: MDS
T1 sequence (P24557 1-533): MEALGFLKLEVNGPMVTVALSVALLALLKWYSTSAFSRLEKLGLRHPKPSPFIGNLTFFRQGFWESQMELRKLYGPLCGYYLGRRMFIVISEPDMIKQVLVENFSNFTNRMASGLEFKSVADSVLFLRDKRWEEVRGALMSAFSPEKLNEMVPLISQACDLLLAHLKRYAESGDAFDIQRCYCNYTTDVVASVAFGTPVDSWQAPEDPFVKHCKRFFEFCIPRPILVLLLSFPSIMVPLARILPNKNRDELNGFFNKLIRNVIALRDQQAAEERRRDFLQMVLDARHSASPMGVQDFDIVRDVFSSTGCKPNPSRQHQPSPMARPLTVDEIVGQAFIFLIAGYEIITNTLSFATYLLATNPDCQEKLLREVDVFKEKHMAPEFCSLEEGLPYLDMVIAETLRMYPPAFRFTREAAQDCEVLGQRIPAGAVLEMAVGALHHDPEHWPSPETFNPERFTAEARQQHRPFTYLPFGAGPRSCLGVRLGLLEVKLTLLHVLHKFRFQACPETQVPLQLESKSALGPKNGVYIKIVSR
Particulars: cited from earlier work; for Thromboxane synthase: Table III arrows, reference drugs.

The target in the next data set is T2, thromboxane receptor (Homo sapiens, UniProt P21731).
T2 sequence (P21731 1-343): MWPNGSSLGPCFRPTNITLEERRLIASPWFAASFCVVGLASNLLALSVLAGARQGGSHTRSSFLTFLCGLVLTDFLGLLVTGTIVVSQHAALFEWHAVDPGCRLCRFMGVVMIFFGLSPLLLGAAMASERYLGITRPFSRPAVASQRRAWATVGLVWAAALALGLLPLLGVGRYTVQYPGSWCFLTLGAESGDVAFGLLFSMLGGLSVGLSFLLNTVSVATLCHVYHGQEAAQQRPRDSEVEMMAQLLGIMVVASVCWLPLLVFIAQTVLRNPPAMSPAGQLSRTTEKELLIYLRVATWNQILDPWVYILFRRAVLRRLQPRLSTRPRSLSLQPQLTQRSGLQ
The note with it: cited from earlier work; for Thromboxane receptor: Table III arrows, reference drugs.

Another data set concerns PGI2 formation. Particulars: Table III arrows, reference drugs; cited from earlier work.
A further data set relates to Cox-1,-2. Particulars: Table III arrows, reference drugs; cited from earlier work.
For data set [4], the system named is human platelet-rich plasma. The experiment in a line: Collagen-induced platelet aggregation in human platelet-rich plasma. It is filed as cell-based. Particulars: human PRP, data not shown, read-out: IC50 collagen-induced platelet aggregation in human PRP. As for the experimental part: as §1, §2
Data set [5] deals with human platelet suspension. The experiment in a line: Thromboxane B2 formation in human platelet suspension. It counts as cell-based. Particulars: Homo sapiens, Platelet; collagen-activated platelets; 500 μM; read-out: inhibition of TXB2 formation. As for the experimental part: Human platelet suspension (3.75×10^8/ml) was preincubated in the presence or absence of nstpbp5185 or aspirin for 3 min before the addition of collagen or AA. Six minutes after the addition of agonist, […] indomethacin and 2 mM EDTA were added to the reaction suspension. After centrifugation in an Eppendorf centrifuge at 14,000 g for 2 min, the thromboxane B2 (TXB2), the stable metabolite of TXA2, levels of the supernatant were measured using a competitive enzyme-immuno assay (EIA) kit according to the instructions of the manufacturer.

Another data set relates to rats. The experiment in a line: Gastric damage in rats. It counts as in vivo. Particulars: 150 μg g^−1 oral, 3 h. As for the experimental part:
Rats (Wistar) were fasted overnight then given aspirin at dose of 150 mg/kg or nstpbp5185 at 40 mg/kg. Both drugs were suspended in 1% carboxymethylcellulose. Three hours later, the rats were sacrificed, the stomach excised, and the extent of hemorrhagic erosions scored by an observer unaware of treatment the rats received. Each lesion larger than 2 mm was counted for comparison. The stomach was fixed in formalin (pH, 7.4) and photographed.

A further data set relates to mice carotid artery. Kind of data set: FeCl3-induced thrombus formation in mice carotid artery. It is filed as in vivo. The note with it: for time to FeCl3-induced occlusion: heparin 10 U kg^−1 or aspirin 40 μg g^−1 i.v.; for FeCl3-induced thrombus formation: heparin 100 U kg^−1 or aspirin 80 μg g^−1 i.v. As for the experimental part: FIG. 14 The antithrombotic activity of nstpbp5185 in FeCl3-induced thrombi formation in mice carotid artery. (A) Mice were intravenously administered with Heparin (10 or 100 U kg^−1), Aspirin (40 or 80 μg g^−1), or different doses of nstpbp5185 (B). After 5 min, FeCl3 injury was induced by a filter paper saturated with ferric chloride solution (10%). After removal of the paper, carotid blood flow (ml min^−1) was monitored continuously until thromboembolism formation or for 60 min. (C) Mice were orally administered with different doses of Aspirin and nstpbp5185 (D). Both drugs were suspended in 1% CMC. Blood flow monitoring were recorded used analyzed Labchart software (AD instruments). Data are presented as the mean±SEM (n≧3). **P<0.01 and ***P<0.001 as compared with the vehicle control (DMSO).
Mice were intravenously or orally administered with different doses of nstpbp5185.

For data set [6], the system named is mesenteric venules of mice. Kind of data set: Fluorescein sodium-induced platelet thrombus formation in mesenteric venules of mice. It is filed as in vivo. As for the experimental part:
A modification of the method was used. Male ICR mice (12-14 g) were anesthetized with sodium pentobarbital (50 mg/kg, i.p.). […] Five min later, various doses of nstpbp5185 (2 and 4 μg/g), aspirin (150 and 250 μg/g), or DMSO (control) were administered by i.v. through other lateral tail vein. The injected volume of the nstpbp5185, aspirin, or DMSO (control) was smaller than 10 μl. A segment of the small intestine with its mesentery attached was exteriorized through a midline incision on the abdominal wall and placed onto a transparent plastic plate for microscopic observation. Frequent rinsing of the mesentery with warm isotonic saline kept at 37° C. was performed to prevent the mesentery from drying out. Microvessels in the mesentery were observed under transillumination from a halogen lamp. Venules with diameters of 30-40 μm were selected to be irradiated to produce a microthrombus. In the epi-illumination system, light from a 100-W mercury lamp was filtered through a filter (B-2A, Nikon, Tokyo, Japan) with a dichromic mirror (DM 510, Nikon). The filtered light eliminated wavelengths below 520 nm irradiated a microvessel through an objective lens (20×). The area of irradiation was about 100 μm in diameter on the focal plane. Ten minutes after administration of the dye, the irradiation by filtered light and a timer were simultaneously started, and thrombus formation was observed on a TV-monitor. Occlusion time was recorded as the time interval for inducing thrombus formation leading to cessation of blood flow.
After giving 50 μg/g fluorescein sodium, the irradiation of mesenteric venules induced thrombus formation which is consist of activated platelets and fibrin clots. […] In the vehicle-treated group, the average TTO was approximately 143.71±4.99 sec (n=17). The group pre-treated with compound 5185 (10 μg/g), the average TTO value was 208.67±6.99 sec (n=12).

The subject of data set [7] is human platelet suspension. The experiment in a line: Arachidonic acid-induced platelet aggregation in human platelet suspension. It counts as cell-based. Particulars: AA 200 μM. As for the experimental part:
as §1, §2

For orientation: IC50 means the midpoint of a concentration-inhibition curve. As usually defined, the inhibition is the change of the read-out against control, counted positive when it falls.

For the molecule `COc1cccc(Cn2c(-c3ccc(C)o3)nc3ccccc32)c1` [Example 6], in data set [1], the “% inhibition ADF” value is reported as 41.4 (n = 2) %. Besides, in data set [2], the “% inhibition collagen” value was found to be 19.1%.
As for `Cc1ccc(Cn2c(-c3ccc(C)o3)nc3ccccc32)cc1` [Example 9, 1-(p-Methylbenzyl)-2-(5-methyl-2-furyl)benzimidazole], the “% inhibition ADF” value in data set [1] is listed as 17.4 (n = 3) %. Also, the “% inhibition collagen” value in data set [2] was found to be 1.1%. The IC50 in [3] is 4.63 µM.
Consider `COc1ccc(Cn2c(-c3ccc(C)o3)nc3ccc(C(=O)c4ccccc4)cc32)cc1` [Example 76, 6-benzoyl-1-(4-methoxybenzyl)-2-(5-methyl-2-furyl)benzimidazole], for which the half-maximal inhibitory concentration (IC50) in data set [3] is more than 50 µM.
The same measure, in the same setting: with `COc1cccc(Cn2c(-c3ccc(C)o3)nc3ccc(C(=O)c4ccccc4)cc32)c1` [Example 77, 6-benzoyl-1-(3-methoxybenzyl)-2-(5-methyl-2-furyl)benzimidazole] the figure was more than 50 µM; with `Cc1ccc(-c2nc3ccc(C(=O)c4ccccc4)cc3n2Cc2ccc(F)cc2)o1` [Example 78, 6-benzoyl-1-(4-fluorobenzyl)-2-(5-methyl-2-furyl)benzimidazole], 25.8 µM; with `Cc1ccc(-c2nc3ccc(C(=O)c4ccccc4)cc3n2Cc2cccc(F)c2)o1` [Example 79, 6-Benzoyl-1-(3-fluorobenzyl)-2-(5-methyl-2-furyl)benzimidazole], more than 50 µM.
Still for that read-out and setting: with `Cc1ccc(-c2nc3ccc(C(=O)c4ccccc4)cc3n2Cc2ccccc2F)o1` [Example 80, 6-benzoyl-1-(2-fluorobenzyl)-2-(5-methyl-2-furyl)benzimidazole] the figure was more than 50 µM.
As for `Cc1ccc(Cn2c(-c3ccc(C)o3)nc3ccc(C(=O)c4ccccc4)cc32)cc1` [Example 81, 6-benzoyl-1-(4-methylbenzyl)-2-(5-methyl-2-furyl)benzimidazole], in [3], the IC50 was more than 50 µM.
For `Cc1ccc(-c2nc3ccc(C(=O)c4ccccc4)cc3n2Cc2ccccc2C)o1` [Example 83, 6-benzoyl-1-(2-methylbenzyl)-2-(5-methyl-2-furyl)benzimidazole], the IC50 in data set [3] was more than 50 µM.
In the case of `Cc1ccc2c(c1CCC(=O)O)CC[C@@H](NS(=O)(=O)c1ccc(Cl)cc1)C2` [Example S18886], on Thromboxane synthase, the Thromboxane synthase entry is recorded as “↓”. Further, on thromboxane receptor, the Thromboxane receptor result is given as “↓”.
Take `O=C(O)CCCCO/N=C(/c1cccnc1)c1cccc(C(F)(F)F)c1` [Ridogrel]: the PGI2 formation entry with PGI2 formation is listed as “↑”. For the same molecule, on Thromboxane synthase, the Thromboxane synthase entry is recorded as “↓”. Besides, the concentration for half-maximal inhibition (IC50) at Thromboxane synthase (reference drug) is 0.001 µM; on thromboxane receptor (reference drug) it was 1 µM. For the same molecule, the Thromboxane receptor result at thromboxane receptor is recorded as “↓”.
As to `CC(=O)Oc1ccccc1C(=O)O` [aspirin, reference compound], the concentration for half-maximal inhibition (IC50) in data set [2] (Platelet, washed human platelets, read-out: IC50 collagen-induced platelet aggregation in human PS) is approximately 190 µM. Moreover, the “Cox-1,-2” value in the data set with Cox-1,-2 is “↓”. Moreover, in data set [4], the concentration for half-maximal inhibition (IC50) amounted to 5100 ± 700 µM. Moreover, the inhibition at 500 µM in data set [5] was determined as 96%. Besides, the PGI2 formation result in the data set on PGI2 formation was “↓”. For the same molecule, the “gastric lesions (>2 mm)” value in the data set on rats is listed as “marked lesions”. In the data set on mice carotid artery, the “time to FeCl3-induced occlusion” value is recorded as “about 10 min” and the FeCl3-induced thrombus formation entry is listed as “blocked”. Also, in data set [6] (250 μg g^−1 i.v.), the occlusion time was found to be 175.5 ± 25.3 s; the “occlusion time at return to control, within 60 min” value stood at 82.6 ± 9.4 s; the “occlusion time within 40 min after administration” value came to 155.0 ± 7.1 s; the “time until occlusion time returned to the control value” is recorded as not above 60 min. The “change of occlusion time” value in data set [6] (low dose (below 250 μg g^−1)) is reported as “did not significantly change”. This molecule had a 50% inhibitory concentration (IC50) in [7] of 313 ± 18.7 µM. For the same molecule, the “effect on U46619-induced platelet aggregation” value in data set [3] (500 μM, data not shown) was “no effect”.
As to `COc1ccc2c(c1)c(CC(=O)O)c(C)n2C(=O)c1ccc(Cl)cc1` [indomethacin, reference compound], the “effect on U46619-induced platelet aggregation” value in [3] (U46619 1 μM, indomethacin concentration not given) is recorded as “without effects”.
Turning to heparin, in the data set with mice carotid artery, the “time to FeCl3-induced occlusion” value is reported as “about 10 min” and the FeCl3-induced thrombus formation entry was “blocked”.
